Source: the NIST ThermoML archive (doi:10.1016/j.jct.2013.09.039)
± gives the expanded uncertainty stated by the source.

Assay: xn = mol fraction of the nth substance listed
Settings: Liquid, Vibrating tube method

Cc1ccc(C)cc1 [1,4-dimethylbenzene] + CCCCCCCC
mass density [kg/m3]
Settings	100 kPa	5000 kPa	10000 kPa	20000 kPa	30000 kPa	40000 kPa
288.15 K, x2 = 0.0509	854.9 ± 2	858.3 ± 2	861.8 ± 2	868.3 ± 2	874.2 ± 2	880 ± 2
288.15 K, x2 = 0.0993	845.1 ± 2	849 ± 2	852.5 ± 2	858.8 ± 2	864.8 ± 2	870.6 ± 2
288.15 K, x2 = 0.1981	826.4 ± 2	830.2 ± 2	833.7 ± 2	840.4 ± 2	846.4 ± 2	852.2 ± 2
288.15 K, x2 = 0.2961	808.8 ± 2	812.6 ± 2	816.2 ± 2	822.9 ± 2	829 ± 2	834.9 ± 2.1
288.15 K, x2 = 0.3989	791.4 ± 2	795.2 ± 2	798.9 ± 2	805.6 ± 2	811.9 ± 2	817.8 ± 2.1
288.15 K, x2 = 0.4891	776.6 ± 2	780.8 ± 2	784.6 ± 2	791.3 ± 2	797.8 ± 2	803.8 ± 2.1
288.15 K, x2 = 0.5473	768.3 ± 2	772 ± 2	775.7 ± 2	782.7 ± 2	789.1 ± 2.1	795.1 ± 2.1
288.15 K, x2 = 0.6039	760.1 ± 2	763.5 ± 2	767.2 ± 2	774.2 ± 2	780.5 ± 2.1	786.5 ± 2.1
288.15 K, x2 = 0.8031	731.5 ± 2	735.9 ± 2	739.8 ± 2	746.9 ± 2	753.3 ± 2.1	759.8 ± 2.1
288.15 K, x2 = 0.8963	719.7 ± 2	723.8 ± 2	727.5 ± 2	734.8 ± 2	741.1 ± 2.1	747.2 ± 2.1
288.15 K, x2 = 0.946	712.7 ± 2	716.7 ± 2	720.8 ± 2	727.6 ± 2	734.2 ± 2.1	740.3 ± 2.1
298.15 K, x2 = 0.0509	846.1 ± 2	850.4 ± 2	853.4 ± 2	860.3 ± 2	866.3 ± 2	872.5 ± 2
298.15 K, x2 = 0.0993	836.5 ± 2	840.8 ± 2	844 ± 2	850.7 ± 2	857.1 ± 2	863.1 ± 2
298.15 K, x2 = 0.1981	817.9 ± 2	822.3 ± 2	825.5 ± 2	832.4 ± 2	838.9 ± 2	844.9 ± 2
298.15 K, x2 = 0.2961	800.2 ± 2	804.6 ± 2	808 ± 2	815 ± 2	821.5 ± 2	827.5 ± 2.1
298.15 K, x2 = 0.3989	782.9 ± 2	787.4 ± 2	790.9 ± 2	798 ± 2	804.5 ± 2	810.7 ± 2.1
298.15 K, x2 = 0.4891	768.7 ± 2	773.3 ± 2	776.6 ± 2	784 ± 2	790.7 ± 2	796.8 ± 2.1
298.15 K, x2 = 0.5473	760.7 ± 2	764.4 ± 2	768 ± 2	775.2 ± 2	781.9 ± 2.1	787.9 ± 2.1
298.15 K, x2 = 0.6039	752.1 ± 2	755.9 ± 2	759.5 ± 2	766.8 ± 2	773.3 ± 2.1	779.4 ± 2.1
298.15 K, x2 = 0.8031	723.7 ± 2	728.5 ± 2	732.1 ± 2	739.3 ± 2	746.2 ± 2.1	752.5 ± 2.1
298.15 K, x2 = 0.8963	712.2 ± 2	716.5 ± 2	720 ± 2	727.3 ± 2	734.1 ± 2.1	740.5 ± 2.1
298.15 K, x2 = 0.946	704.7 ± 2	709.5 ± 2	713.2 ± 2	720.7 ± 2	727.5 ± 2.1	733.8 ± 2.1
308.15 K, x2 = 0.0509	837.4 ± 2	841.4 ± 2	845.2 ± 2	852.1 ± 2	858.9 ± 2	865 ± 2
308.15 K, x2 = 0.0993	828 ± 2	832 ± 2	835.8 ± 2	842.9 ± 2	849.6 ± 2	855.8 ± 2
308.15 K, x2 = 0.1981	809.3 ± 2	813.5 ± 2	817.5 ± 2	824.5 ± 2	831.4 ± 2	837.7 ± 2.1
308.15 K, x2 = 0.2961	791.6 ± 2	796 ± 2	800 ± 2	807.3 ± 2	814.2 ± 2	820.5 ± 2.1
308.15 K, x2 = 0.3989	774.4 ± 2	778.8 ± 2	783 ± 2	790.3 ± 2	797.2 ± 2	803.7 ± 2.1
308.15 K, x2 = 0.4891	760.3 ± 2	764.7 ± 2	768.9 ± 2	776.4 ± 2	783.4 ± 2.1	789.7 ± 2.1
308.15 K, x2 = 0.5473	752.4 ± 2	755.9 ± 2	760.1 ± 2	767.7 ± 2	774.6 ± 2.1	781.2 ± 2.1
308.15 K, x2 = 0.6039	743.9 ± 2	747.2 ± 2	751.6 ± 2	759.3 ± 2	766.3 ± 2.1	772.7 ± 2.1
308.15 K, x2 = 0.8031	716.1 ± 2	719.9 ± 2	724.2 ± 2	732.1 ± 2	739.2 ± 2.1	745.9 ± 2.1
308.15 K, x2 = 0.8963	704.2 ± 2	708.1 ± 2	712.4 ± 2	720.1 ± 2	727.4 ± 2.1	734 ± 2.1
308.15 K, x2 = 0.946	697.5 ± 2	701.3 ± 2	705.5 ± 2	713.4 ± 2	720.7 ± 2.1	727.3 ± 2.1
